Experimental data: article PMC8820799, “Angiogenesis and anti-leukaemia activity of novel indole derivatives as potent colchicine binding site inhibitors” (Journal of Enzyme Inhibition and Medicinal Chemistry, 2022)
≈ marks a conversion by molar mass, not a printed value. Like-named read-outs stand apart in the source and are kept apart here.

Legend:
HUVEC [1] = test: Transwell cell invasion experiment; type: cell-based, human; conditions: 0.1 µM to 10 µM, concentration-dependent
Protocol: The upper surface of Transwell membrane was precoated with 40 µL Matrigel gel and incubated for 45 min at 37 °C for gelling. Then, cells were trypsinized and seeded at 6х10^4 per upper chamber, and cultured in 1% foetal bovine serum medium containing different concentrations of compounds. The chamber was then placed in a 24-well plate to which 10% FBS had been added. After 48 h incubation at 37 °C, both chambers were washed with PBS three times, and then fixed with 4% paraformaldehyde for 15 min, followed by staining with crystal violet. The non-invasive cells on the upper surface membrane were wiped with cotton swabs. The image of the cells on the bottom face was recorded and quantified under an inverted microscope. The results were the means calculated from three replicates of each experiment.[37]

[2] = test system: K562 cell xenograft in zebrafish embryos; test: Zebrafish xenograft of K562 cells; type: in vivo; conditions: 2 µM and 6 µM, compared with the control group
Protocol: K562 cells were labelled with Red CMTPX according to the manufacturer’s protocol. Before the microinjections, Tg(flk:EGFP) embryos were kept at 28 °C and manually dechorionated few hours. At 48 hpf, 4 nL of cells suspension containing 400 labelled cells was microinjected into the yolk of anaesthetised embryos by a pneumatic pico pump (PV820, World Precision Instruments, USA). After injection, embryos were incubated to recover for at least 1 h at 28 °C, the embryos were distributed to 6-well plates with 20 embryos placed in each well. The injected xenografts were exposed to the indicated doses of compounds and maintained at 35 °C. DMSO (0.3%) was used as a vehicle control. The survival and development of the xenografted embryos was recorded every day until the end of experiment. At one day post injection (dpi), fluorescent microscopy was used to examine K562 cells size, death and migration in caudal region of anaesthetised zebrafish.

[3] = Kinetic solubility by nephelometry; type: physicochemical; conditions: kinetic from dmso stock, 1% DMSO
Protocol: Calculated physicochemical parameters. Physicochemical properties were calculated using the ChemAxon chemistry cartridge via JChem for Excel software (version 16.4.11). Compound 29e in DMSO was spiked into either pH 6.5 phosphate buffer or 0.01 M HCl (approximately pH 2.0) with the final DMSO concentration being 1%. After 30 min had elapsed, samples were analysed via Nephelometry to determine a solubility range.

THP-1 = test: CCK-8 assay, THP-1; type: cell-based; conditions: Homo sapiens, leukaemia, AML, CCK-8, 72 h
Protocol: (§1) Cells were seeded in 96-well plates at a density of 8 × 10^3 per well and exposed to different concentrations of compounds for 72 h. Subsequently, 10 µL CCK8 solution was added to each well and co-incubated for another 3–4 h at 37 °C. The absorbance was determined at 450 nm. Data was calculated with GraphPad Prism5 software.[32]

K562 cells [4] = test: Cell apoptosis assay by flow cytometry (Annexin V-PE/PI); type: cell-based; conditions: K562, 48 h; after treatment of 29e (control 5.95%); equals Q2+Q3 at 200 nM
Protocol: K562 cells at 8х10^4 cells/well were seeded in 12-well cell culture plates overnight and the cultured cells were incubated with a dose range of compounds 29e for 48 h. The treated or untreated cells were washed twice with PBS and stained by Annexin V-PE and PI for 15 min without light exposure according to the manufacturer’s protocol. Apoptosis was quantified using a flow cytometer ((Becton, Dickinson and Company, USA).[32]

HUVEC [5] = test: Tube formation assay; type: cell-based, human; conditions: 0.1, 1 and 10 µM
Protocol: Matrigel matrix (Basement Membrane Matrix, BD Biosciences) was thawed at 4 °C overnight. At this point, 50 µL of the matrix solution was added to each well of a 96-well plate. After gelling at 37 °C for 30 min, the matrix was overlaid with 200 µL of medium containing 1 × 10^5 HUVECs per well, which was incubated for 6 h to allow capillary tubes to form. Different concentrations of compounds were added in the cultures and incubated for 6 h to monitor the morphological changes of cells and tubes. The disappearance of existing vasculature was photographed at 10х magnification. Values were expressed as percent change form control cultures grown with complete medium.[36] Standard dimensional parameters (percent area covered by HUVECs and total length of the HUVEC network per field) were noted, and standard topological parameters (number of meshes and branching points per field) were estimated.

[6] = Preliminary cytotoxicity study on zebrafish embryos; conditions: zebrafish, in vivo
zebrafish embryos = test: as above; conditions: at the concentration of 6 µM
leukaemia cell lines = test: Anti-proliferation against a variety of leukaemia cell lines (CCK-8); type: cell-based; conditions: seven leukaemia cell lines; read-out: IC50 against a variety of leukaemia cell lines (range over panel)
Protocol: as §1

[7] = In vitro metabolic stability, mouse liver microsomes; type: in vitro ADME; conditions: 0.4 mg/mL protein
Protocol: The metabolic stability assay was performed by incubating the test compound in mouse or human liver microsomes (XenoTech, lot no. 1510256) at 37 °C and a protein concentration of 0.4 mg/mL. Microsomal incubations were performed at a substrate concentration of 0.5 µM. Data analysis. Species scaling factors were used to convert the in vitro CLint(mL/min/mg) to an in vivo CLint(mL/min/kg).

MV4-11 = test: CCK-8 assay, MV4-11; type: cell-based; conditions: Homo sapiens, leukaemia, AML, CCK-8, 72 h
Protocol: as §1

HuT 78 = test: CCK-8 assay, HuT 78; type: cell-based; conditions: Homo sapiens, HuT78; leukaemia, ALL; CCK-8, 72 h
Protocol: as §1

CCRF-CEM = test: CCK-8 assay, CCRF-CEM; type: cell-based; conditions: Homo sapiens, leukaemia, ALL, CCK-8, 72 h
Protocol: as §1

K562 cells [8] = test: Western blot of apoptosis-related proteins; type: cell-based; conditions: K562, 48 h
Protocol: Exponentially growing K562 cells in were seeded in […] at a density of 6х10^5/dish and incubated overnight. The cultured cells were treated with indicated concentrations of 29e for 48 h. After the cells were washed with cold PBS, the supernatant was removed. Cells were scraped off the tissue culture dish, and then lysed by 100 µl ice-cold RIPA lysis buffer for 20 min with occasional agitation. The supernatant was collected by centrifuging at 12,000 g for 10 min at 4 °C. The protein concentration in the supernatant was determined by using a BCA protein assay kit. After BCA analysis to quantify proteins, samples were prepared in SDS-PAGE loading buffer, then boiled for 10 min at 100 °C. Western blot analyses were conducted after separation by SDS-PAGE electrophoresis and transfer to nitrocellulose filter (NC) membranes. Immunoblotting was performed according to the antibody manufacturers’ recommendations. Antibodies: caspase-3, caspase-9, PARP and β-actin.

Jurkat = test: CCK-8 assay, Jurkat; type: cell-based; conditions: Homo sapiens, leukaemia, ALL, CCK-8, 72 h
Protocol: as §1

Compound: COc1cc(C(=O)/C=C/c2cn(S(=O)(=O)c3ccccc3)c3ccccc23)cc(OC)c1OC [Compound 29e, (E)-3–(1-(Phenylsulfonyl)-1H-indol-3-yl)-1–(3,4,5-trimethoxyphenyl)prop-2-en-1-one]
- HUVEC invasion (Transwell) (HUVEC [1]): the number of HUVEC invasion decreased
- K562 fluorescence intensity and tumour area in zebrafish xenograft [2]: reduced intensities and decreased tumour area
- solubility at 30 min ([3]; 0.01 M HCl, pH 2, simulated gastric fluid, 0.01 M HCl, read-out: Solubility pH 2.0): 25 to 50 µg/mL (≈ 52.4 to 105 µM)
- solubility at 30 min ([3]; phosphate buffer, pH 6.5, aqueous buffer, phosphate buffer, read-out: Solubility pH 6.5): ≤ 150 µg/mL
- IC50 (THP-1): 370 ± 30 nM
- percentage of apoptotic cell (K562 cells [4]): 45.81%
- HUVEC tubule-like networks (HUVEC [5]): sharply reduced the width and length
- IC50 [6]: 44600 nM
- toxicity on zebrafish embryos (zebrafish embryos): did not cause the toxicity
- IC50 (leukaemia cell lines): 90 to 1220 nM
- microsomal CLint at 0.5 µM [7]: 77 µL/min/mg
- half-life at 0.5 µM ([7]; 37 °C, read-out: Degradation half-life Mouse): 1 h
- IC50 (MV4-11): 250 ± 20 nM
- IC50 (HuT 78): 260 ± 110 nM
- IC50 (CCRF-CEM): 840 ± 80 nM
- Expression of caspase-3, caspase-9 and PARP (K562 cells [8]): decreased efficiently
- Expression of cleaved caspase-3 and PARP (K562 cells [8]): up-regulation of cleaved caspase-3 and PARP
- IC50 (Jurkat): 1220 ± 120 nM
